Test results taken from PubChem BioAssay (NCI).
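These data come from cells grown in 96-well plates and exposed to compound for 48 hours at five concentrations. GI50 = concentration required for 50% inhibition of growth. Definition used: TGI = concentration required for complete inhibition of growth.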

Key:
Experiment in all cases: DTP human tumour cell line panel, 48 h
[1] = test system: 786-0 renal
[2] = test system: A549 NSCLC
[3] = test system: ACHN renal
[4] = test system: BT-549 breast
[5] = test system: CAKI-1 renal
[6] = test system: CCRF-CEM leukemia
[7] = test system: COLO 205 colon
[8] = test system: EKVX NSCLC
[9] = test system: HCC-2998 colon
[10] = test system: HCT-116 colon
[11] = test system: HCT-15 colon
[12] = test system: HL-60(TB) leukemia
[13] = test system: HOP-62 NSCLC
[14] = test system: HOP-92 NSCLC
[15] = test system: HS 578T breast
[16] = test system: HT29 colon
[17] = test system: K-562 leukemia
[18] = test system: KM12 colon
[19] = test system: M14 melanoma
[20] = test system: MALME-3M melanoma
[21] = test system: MCF7 breast
[22] = test system: MDA-MB-231 breast
[23] = test system: MDA-MB-435
[24] = test system: MOLT-4 leukemia
[25] = test system: NCI-H226 lung
[26] = test system: NCI-H23 lung
[27] = test system: NCI-H460 lung
[28] = test system: NCI-H522 lung
[29] = test system: NCI/ADR-RES ovarian
[30] = test system: OVCAR-5 ovarian
[31] = test system: OVCAR-8 ovarian
[32] = test system: PC-3 prostate
[33] = test system: RXF 393 renal
[34] = test system: SF-268 CNS
[35] = test system: SF-539 CNS
[36] = test system: SK-MEL-2 melanoma
[37] = test system: SK-MEL-28 melanoma
[38] = test system: SK-OV-3 ovarian
[39] = test system: SN12C renal
[40] = test system: SNB-19 CNS
[41] = test system: SNB-75 CNS
[42] = test system: T-47D breast
[43] = test system: TK-10 renal
[44] = test system: U251 CNS
[45] = test system: UACC-257 melanoma
[46] = test system: UO-31 renal
[47] = test system: IGROV1 ovarian
[48] = test system: LOX IMVI melanoma
[49] = test system: OVCAR-3 ovarian
[50] = test system: OVCAR-4 ovarian
[51] = test system: RPMI-8226 leukemia
[52] = test system: SF-295 CNS
[53] = test system: SK-MEL-5 melanoma
[54] = test system: SR leukemia
[55] = test system: SW-620 colon
[56] = test system: UACC-62 melanoma

Q: Which results are given for `C=CC1CC12C(=O)C1OC2(C)C2C(=O)c3c(O)cccc3C(=O)C12` (stereo not given)?
A: GI50 [1]: 29.1 µM; TGI [1]: > 100 µM; GI50 [2]: 70 µM; TGI [2]: > 100 µM; GI50 [3]: 20.1 µM; TGI [3]: 46.6 µM; GI50 [4]: 53.4 µM; TGI [4]: > 100 µM; GI50 [5]: 13.1 µM; TGI [5]: 31.8 µM; GI50 [6]: 26 µM; TGI [6]: > 100 µM; GI50 [7]: 31.7 µM; TGI [7]: > 100 µM; GI50 [8]: 56.9 µM; TGI [8]: > 100 µM; GI50 [9]: 31.1 µM; TGI [9]: > 100 µM; GI50 [10]: 38.1 µM; TGI [10]: > 100 µM; GI50 [11]: 19.1 µM; TGI [11]: 44.6 µM; GI50 [12]: 18.7 µM; TGI [12]: 46.9 µM; GI50 [13]: > 100 µM; TGI [13]: > 100 µM; GI50 [14]: 25.8 µM; TGI [14]: > 100 µM; GI50 [15]: 21.8 µM; TGI [15]: 88.3 µM; GI50 [16]: 33.9 µM; TGI [16]: > 100 µM; GI50 [17]: 29.6 µM; TGI [17]: 90.7 µM; GI50 [18]: 18 µM; TGI [18]: 66.3 µM; GI50 [19]: 54.9 µM; TGI [19]: > 100 µM; GI50 [20]: 17.1 µM; TGI [20]: 54.5 µM; GI50 [21]: 23.2 µM; TGI [21]: 74.5 µM; GI50 [22]: 18.7 µM; TGI [22]: 59 µM; GI50 [23]: 21 µM; TGI [23]: 45.1 µM; GI50 [24]: 23.6 µM; TGI [24]: > 100 µM; GI50 [25]: 45.6 µM; TGI [25]: > 100 µM; GI50 [26]: 26.9 µM; TGI [26]: 85.6 µM; GI50 [27]: 33.8 µM; TGI [27]: > 100 µM; GI50 [28]: 39.8 µM; TGI [28]: > 100 µM; GI50 [29]: 27.9 µM; TGI [29]: 84.1 µM; GI50 [30]: > 100 µM; TGI [30]: > 100 µM; GI50 [31]: 37.8 µM; TGI [31]: > 100 µM; GI50 [32]: 25.7 µM; TGI [32]: 81.5 µM; GI50 [33]: 13.1 µM; TGI [33]: 41.1 µM; GI50 [34]: 30.5 µM; TGI [34]: > 100 µM; GI50 [35]: 41.6 µM; TGI [35]: > 100 µM; GI50 [36]: 50 µM; TGI [36]: > 100 µM; GI50 [37]: 29.1 µM; TGI [37]: > 100 µM; GI50 [38]: 94.5 µM; TGI [38]: > 100 µM; GI50 [39]: 46.8 µM; TGI [39]: > 100 µM; GI50 [40]: 87.8 µM; TGI [40]: > 100 µM; GI50 [41]: 72.4 µM; TGI [41]: > 100 µM; GI50 [42]: 31.2 µM; TGI [42]: > 100 µM; GI50 [43]: 39.7 µM; TGI [43]: > 100 µM; GI50 [44]: 28.7 µM; TGI [44]: 77.7 µM; GI50 [45]: 33.3 µM; TGI [45]: > 100 µM; GI50 [46]: > 100 µM; TGI [46]: > 100 µM

Q: `Clc1ccc(-c2c3nc(c(-c4ccc(Cl)cc4)c4ccc([nH]4)c(-c4ccc(Cl)cc4)c4nc(c(-c5ccc(Cl)cc5)c5ccc2[nH]5)C=C4)C=C3)cc1` was tested. Which TGI [1] did it give?
A: The TGI was > 100 µM.

Q: What about the TGI [2] of the same compound?
A: Its TGI is > 100 µM.

Q: And the TGI [3]?
A: The TGI was > 100 µM.

Q: What about the TGI [4] of the same compound?
A: Its TGI is > 100 µM.

Q: And the TGI [5]?
A: Its TGI is > 100 µM.

Q: And the TGI [6]?
A: The TGI was > 100 µM.

Q: And the TGI [7]?
A: The TGI was > 100 µM.

Q: What about the TGI [8] of the same compound?
A: Its TGI is > 100 µM.

Q: What about the TGI [9] of the same compound?
A: Its TGI is > 100 µM.

Q: What about the TGI [11] of the same compound?
A: The TGI was > 100 µM.

Q: What about the TGI [12] of the same compound?
A: The TGI was > 100 µM.

Q: What about the TGI [13] of the same compound?
A: Its TGI is > 100 µM.

Q: What about the TGI [14] of the same compound?
A: The TGI was > 100 µM.

Q: What about the TGI [15] of the same compound?
A: The TGI was > 100 µM.

Q: What about the TGI [16] of the same compound?
A: The TGI was > 100 µM.

Q: What about the TGI [47] of the same compound?
A: Its TGI is > 100 µM.

Q: What about the TGI [17] of the same compound?
A: The TGI was > 100 µM.

Q: And the TGI [18]?
A: Its TGI is > 100 µM.

Q: What about the TGI [48] of the same compound?
A: The TGI was > 100 µM.

Q: What about the TGI [19] of the same compound?
A: Its TGI is > 100 µM.

Q: And the TGI [20]?
A: The TGI was > 100 µM.

Q: What about the TGI [21] of the same compound?
A: The TGI was > 100 µM.

Q: And the TGI [22]?
A: The TGI was > 100 µM.

Q: What about the TGI [23] of the same compound?
A: The TGI was > 100 µM.

Q: And the TGI [24]?
A: Its TGI is > 100 µM.

Q: What about the TGI [26] of the same compound?
A: The TGI was > 100 µM.

Q: And the TGI [27]?
A: Its TGI is > 100 µM.

Q: What about the TGI [28] of the same compound?
A: Its TGI is > 100 µM.

Q: What about the TGI [29] of the same compound?
A: The TGI was > 100 µM.

Q: What about the TGI [49] of the same compound?
A: Its TGI is > 100 µM.

Q: And the TGI [50]?
A: The TGI was > 100 µM.

Q: And the TGI [30]?
A: Its TGI is > 100 µM.

Q: And the TGI [31]?
A: Its TGI is > 100 µM.

Q: What about the TGI [32] of the same compound?
A: Its TGI is > 100 µM.

Q: What about the TGI [51] of the same compound?
A: The TGI was > 100 µM.

Q: And the TGI [34]?
A: The TGI was > 100 µM.

Q: And the TGI [52]?
A: Its TGI is > 100 µM.

Q: And the TGI [35]?
A: Its TGI is > 100 µM.

Q: What about the TGI [36] of the same compound?
A: Its TGI is > 100 µM.

Q: And the TGI [37]?
A: The TGI was > 100 µM.

Q: And the TGI [53]?
A: Its TGI is > 100 µM.

Q: What about the TGI [38] of the same compound?
A: Its TGI is > 100 µM.

Q: What about the TGI [39] of the same compound?
A: Its TGI is > 100 µM.

Q: And the TGI [40]?
A: Its TGI is > 100 µM.

Q: What about the TGI [41] of the same compound?
A: The TGI was 63.4 µM.

Q: What about the TGI [54] of the same compound?
A: Its TGI is > 100 µM.

Q: What about the TGI [55] of the same compound?
A: Its TGI is > 100 µM.

Q: What about the TGI [42] of the same compound?
A: Its TGI is > 100 µM.

Q: What about the TGI [43] of the same compound?
A: Its TGI is > 100 µM.

Q: And the TGI [44]?
A: The TGI was > 100 µM.

Q: And the TGI [45]?
A: Its TGI is > 100 µM.

Q: What about the TGI [56] of the same compound?
A: Its TGI is > 100 µM.

Q: What about the TGI [46] of the same compound?
A: Its TGI is > 100 µM.
